Test [1] has as its target binding of biotin‐HA to immobilized IGFBP‐3. Put plainly: ELISA, competition of CD44 with IGFBP-3 for binding HA. Also noted: species or system human. As to conditions: for IC50: 10 nM glycosylated IGFBP-3 coated, biotin-HA 100 nM incubated 1 h with CD44 0–1000 nM, mean ± SD of three independent experiments in triplicate, read-out: concentration of CD44 that produced 50% of maximum binding (50% inhibition of biotin-HA binding to IGFBP-3). How it is done:
ELISA was conducted as we reported previously. Nunc MaxiSorp 96‐well flat‐bottom plates (Thermo Fisher, Waltham, MA, USA) were coated with samples as indicated. The plates were incubated overnight at 4 °C on a shaker to allow binding of the samples to the plate wells. After the incubation, the wells were washed 4× with TBST, filled with 400 µL blocking buffer (110 mM KCl, 5 mM NaHCO3, 5 mM MgCl2, 1 mM EGTA, 0.1 mM CaCl2, 20 mM HEPES, 1% BSA, pH 7.4), and incubated overnight at 4 °C on a shaker. The wells were then washed 4× with TBST, and 100 µL of sample at the desired concentration was added to each well before incubating overnight at 4 °C on a shaker. TBST was then used to wash the wells 4× before proceeding in one of two ways: (a) Biotinylated samples were analyzed by adding 100 µL streptavidin–HRP conjugate in TBST (1 : 2500 dilution) to the samples before incubating for 3 h at RT on a shaker, or (b) samples without biotin were analyzed by adding 100 µL TBST containing the primary antibody at the manufacturer's recommendation and incubating for 3 h at RT on a shaker before washing 4× with TBST. The secondary antibody in 100 µL TBST was then added to the samples following the manufacturer's recommendation and incubated for 1 h at RT on a shaker. Plates containing either biotinylated or nonbiotinylated samples were then washed 5× with TBST followed by the addition of 100 µL TMB resulting in a blue color change. The reaction was stopped with 100 µL 2 M H2SO4 after incubating at RT for 0.5–15 min, resulting in a yellow color change that was measured by absorbance at 450 nm. To monitor nonspecific binding, negative control wells on the plates included, for example, bound IGFBP‐3 then adding all components, streptavidin–horseradish peroxidase and TMB, but without addition of biotin‐HN. Some wells were coated with 2.5, 10, 50, 100, 500, and 5000 nM biotin‐HN or biotin‐HA to allow conversion of the OD measurements to concentrations of bound material. Before analysis, the OD from the data was corrected for nonspecific binding by subtracting the mean background absorbance for the negative controls. Typically, in control wells incubated on each plate, the background binding is about 10–15% of the maximum binding seen with addition of biotin‐HN or biotin‐HA or antibodies. Statistical analysis was determined by the GRAPHPAD PRISM 8.4.2 software (San Diego, CA, USA). Data were expressed as the mean ± SD. Three to five independent experiments were carried out in triplicate for each assay condition.
Glycosylated recombinant His‐tagged IGFBP‐3 (Speed BioSystems) and nonglycosylated recombinant IGFBP‐3 (MyBioSource, San Diego, CA, USA) were used as reported earlier. Glycosylated human CD44 recombinant protein was purchased from Sino Biological (Wayne, PA, USA). To cleave N‐linked glycans, the proteins were treated with PNGase F for 4 h at 37 °C under nondenaturing conditions according to the manufacturer's specification. To reduce the proteins and following previous protocols, the purified proteins were reduced with TCEP‐HCl (2.5 mM in PBS/1%BSA for 20 min at 4 °C) and then alkylated by 5 mM NEM for 30 min at 4 °C, to permanently block disulfide bond formation. As control, nonreduced samples treated with only 5 mM NEM were used. […]

For test [2], the system named is amyloid‐β. As to conditions: aggregation induced by acetylcholinesterase; cited from earlier work. From the text: (§1) Humanin (HN), first discovered by the Nishimoto laboratory, is a mitochondrial‐derived peptide known to bind with high affinity and specificity to the 18‐amino acid residue (215–232) heparin‐binding domain of IGFBP‐3 [54] that also binds HA.
In test [3] the test system is IGFBP‐3 interaction with importin‐β1. As to conditions: in vitro; cited from earlier work.
Excerpt: as §1

Test [4] has as its system HFL1 normal human fibroblast cells (CD44-negative). Put plainly: MTT cell viability, HFL1. In kind it is cell-based. As to conditions: protein 50 nM, 48 h, with or without 5F12. How it is done:
(§2) HFL1 (ATCC CCL‐153) normal, nontransformed, and nontumorigenic human fibroblast cell line and the human NSCLC cell line, A549 (ATCC CCL‐185), were purchased from the American Type Culture Collection (ATCC, Manassas, VA, USA). Cells were seeded as we reported earlier in 5 mL HyClone Dulbecco's modified Eagle's medium/nutrient mixture F‐12 (DMEM/F12) (GE Healthcare Life Sciences, Pittsburgh, PA, USA), supplemented with 10% Fetalgro bovine growth serum (FBS; RMBIO, Missoula, MT, USA), 50 U·mL^−1 penicillin, and 50 U·mL^−1 streptomycin (Invitrogen Life Technologies, Carlsbad, CA, USA) in 25‐cm^2 tissue culture flasks, and allowed to grow overnight in an incubator at 37 °C, 95% humidity, and 5% CO2. Cells were counted with a hemocytometer after trypan blue staining.
(§3) The MTT reduction assay (Sigma‐Aldrich), used to measure cell viability, was employed as we reported earlier. […] The absorbance was measured at 570 nm in a plate reader. […]
(§4) (A) IGFBP‐3 peptides (50 nM each) were bound to the ELISA plate wells, and then, 200 nM biotin‐HA was added and processed as described in the Materials and methods section. The data were normalized to the control incubated with BSA (control 1), and fold change relative to the control was calculated. […] Cell viability was assessed by the MTT assay. […]

Test [5] deals with A549 human NSCLC cells (CD44-expressing). Put plainly: MTT cell viability, A549. In kind it is cell-based. As to conditions: protein 50 nM, 48 h, with or without 5F12. How it is done:
as §2, §3, §4

For test [6] the following is noted: after reduction; cited from earlier work. The source says:
We next tested whether reduction of CD44 affects its ability to compete with IGFBP‐3 for binding HA. […] Reduction of this bond inhibited HA‐CD44 interaction in vitro, and the ability of cells to adhere to HA‐coated surfaces was blocked by pretreatment with reducing agents. Moreover, reductio ...

Ends that are not written are not given here.

For the substance “CD44 Glycosylated/Reduced: glycosylated CD44, reduced with TCEP-HCl then alkylated by NEM”, the IC50 in test [1] was 0.21 ± 0.041 µM. On the same count and under the same terms, in the case of “CD44 Glycosylated: Glycosylated human CD44 recombinant protein (Sino Biological)” it was 0.128 ± 0.024 µM. The same measure, in the same setting: in the case of “CD44 Nonglycosylated/Reduced: PNGase F treated CD44, reduced with TCEP-HCl then alkylated by NEM” it was 0.176 ± 0.037 µM. For “CD44 Nonglycosylated: human recombinant CD44 treated with PNGase F to cleave N-linked glycans”, the “ability of CD44 to block HA-IGFBP-3 interaction (in words)” value in test [1] (10 nM IGFBP-3 coated, biotin-HA 100 nM) was “more efficient at inhibiting the binding of biotin‐HA to immobilized IGFBP‐3 than glycosylated CD44”. The IC50 in test [1] came to 0.009 ± 0.002 µM. As to “HN: mitochondrial-derived peptide binding the 18-amino acid residue (215–232) heparin-binding domain of IGFBP-3 (MAPRGFSCLLLLTSEIDLPVKRRA-NH2; UniProt Q8IVG9 1-24, looked up)”, in test [2], the “effect on amyloid-β aggregation (in words)” value is recorded as “aggregation of amyloid‐β induced by acetylcholinesterase is blocked by the presence of HN”. The “effect on IGFBP-3–importin-β1 interaction (in words)” value in test [3] was “blocks its interaction with importin‐β1 in vitro”.

“glycosylated IGFBP‐3 protein: Glycosylated recombinant His-tagged IGFBP-3 (Speed BioSystems)”: the “HFL1 cell viability, IGFBP-3 proteins (in words)” value in test [4] was “lack of effect”. For the same substance, the “A549 cell viability, IGFBP-3 proteins (in words)” value in test [5] was “a comparable decrease in A549 cell viability”.

“nonglycosylated IGFBP‐3 protein: nonglycosylated recombinant IGFBP-3 (MyBioSource)”: in test [4], the “HFL1 cell viability, IGFBP-3 proteins (in words)” value was “lack of effect”. In test [5], the “A549 cell viability, IGFBP-3 proteins (in words)” value was “a comparable decrease in A549 cell viability”. For the substance “recombinant soluble CD44: recombinant soluble CD44 of ref 47”, the “effect of reduction on ability of CD44 to bind HA (in words)” value in test [6] is given as “inhibit its ability to bind HA”.

The values above are taken from article PMC7396449, “Biochemical determinants of the IGFBP‐3–hyaluronan interaction” (FEBS Open Bio, 2020).
